In PubChem BioAssay (NCI) one finds TGI data, which are given here for 21 compounds.

Test systems include IGROV1 ovarian; 786-0 renal; CCRF-CEM leukemia; ACHN renal; MDA-MB-435; CAKI-1 renal; A549 NSCLC; A498 renal; HL-60(TB) leukemia; HOP-62 NSCLC.
Common to all, as to assay: DTP human tumour cell line panel, 48 h

The structures appear in SMILES notation.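 The compound was tested at five concentrations on cells cultured in 96-well plates, with a 48-hour exposure period. Definition used: TGI = concentration required for complete inhibition of growth.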

In general, TGI refers to the concentration at which net growth stops. A low value points to greater sensitivity of the cells. `COC(=O)c1c(C#C[Si](C)(C)C)c(C#C[Si](C)(C)C)c(C#C[Si](C)(C)C)c(C#C[Si](C)(C)C)c1C(=O)OC`: the TGI with IGROV1 ovarian, in the assay with 786-0 renal, in the assay with CCRF-CEM leukemia, with ACHN renal, in the assay on MDA-MB-435 and in the assay with CAKI-1 renal was greater than 100 µM in each case. Besides, the TGI in the assay with A549 NSCLC, in the assay with A498 renal and in the assay with HL-60(TB) leukemia was greater than 100 µM each time.
As to `C/C(=C\c1ccccc1)C(=O)NCc1ccc(C(=O)NCCc2c[nH]c3ccccc23)cc1`, the TGI in the assay on IGROV1 ovarian, in the assay with 786-0 renal, in the assay with CCRF-CEM leukemia, in the assay with HOP-62 NSCLC, in the assay on ACHN renal and in the assay with MDA-MB-435 was greater than 100 µM throughout. Further, the TGI in the assay on CAKI-1 renal, in the assay on A549 NSCLC and with A498 renal was greater than 100 µM in each case.
As for `Cc1ccc2c(=O)c(C(=O)N(CCO)CCO)c[nH]c2n1`, the TGI with IGROV1 ovarian, with 786-0 renal, with CCRF-CEM leukemia, in the assay on HOP-62 NSCLC, with ACHN renal and with MDA-MB-435 was greater than 100 µM in each case. In addition, the TGI with CAKI-1 renal, with A549 NSCLC, in the assay with A498 renal and in the assay with HL-60(TB) leukemia was greater than 100 µM throughout.
Turning to `Cc1nnc(CC#N)n1NC(=O)CC#N`, the TGI in the assay with IGROV1 ovarian, in the assay on 786-0 renal, in the assay on CCRF-CEM leukemia, with HOP-62 NSCLC, in the assay on ACHN renal and in the assay on MDA-MB-435 was greater than 100 µM each time. Also, the TGI with CAKI-1 renal, in the assay on A549 NSCLC, with A498 renal and with HL-60(TB) leukemia was greater than 100 µM each time.
As to `OC(O)(C(F)(F)F)C(F)(F)F`, the TGI with IGROV1 ovarian, with 786-0 renal, in the assay on CCRF-CEM leukemia, in the assay on HOP-62 NSCLC, with ACHN renal and with MDA-MB-435 was greater than 100 µM throughout. The total growth inhibition concentration (TGI) in the assay on CAKI-1 renal, in the assay with A549 NSCLC, with A498 renal and in the assay with HL-60(TB) leukemia was greater than 100 µM each time.
For the compound `CCCCCCCCC[n+]1cccc(C2C(C(=O)OCC)=C(C)NC(C)=C2C(=O)OCC)c1`, the TGI was found to be 5.47 µM in the assay with IGROV1 ovarian; 26.9 µM in the assay with 786-0 renal; 6.85 µM with CCRF-CEM leukemia; 28.7 µM in the assay on HOP-62 NSCLC; 28.5 µM in the assay with ACHN renal; 4.48 µM in the assay with MDA-MB-435. Further, the concentration for total growth inhibition (TGI) with CAKI-1 renal stood at 28.2 µM; in the assay with A549 NSCLC, 36.1 µM; with A498 renal, 38.6 µM; in the assay with HL-60(TB) leukemia, 6.25 µM.
As for `COC(=O)/C=C\C(C#N)(C#N)N=Cc1ccsc1`, the concentration for total growth inhibition (TGI) in the assay on IGROV1 ovarian amounted to 20.9 µM; with 786-0 renal, 3.02 µM; in the assay with CCRF-CEM leukemia, 0.93 µM; with HOP-62 NSCLC, 30.9 µM; in the assay with ACHN renal, 2.72 µM; with MDA-MB-435 it was 12.5 µM. For the same compound, the TGI in the assay with CAKI-1 renal is 6.07 µM; with A549 NSCLC, 33 µM; in the assay with A498 renal, 35.3 µM.
For the compound `O=S(=O)(O)c1ccc(Nc2ccnc3cc(Cl)ccc23)cc1`, the TGI with IGROV1 ovarian, in the assay with 786-0 renal, in the assay on CCRF-CEM leukemia, in the assay with HOP-62 NSCLC, with ACHN renal and in the assay with MDA-MB-435 was greater than 100 µM in each case. Moreover, the TGI in the assay on CAKI-1 renal, in the assay on A549 NSCLC, in the assay on A498 renal and in the assay with HL-60(TB) leukemia was greater than 100 µM in each case.
As to `CCOC(=O)CCC(C(=O)OCC)n1nnc2cc(Nc3c(C)[n+]([O-])c4ccc(Cl)cc4[n+]3[O-])ccc21` (stereo unspecified), the TGI in the assay on IGROV1 ovarian, in the assay on 786-0 renal, in the assay on CCRF-CEM leukemia, in the assay with HOP-62 NSCLC, with ACHN renal and with MDA-MB-435 was greater than 100 µM each time. The TGI in the assay with CAKI-1 renal, with A549 NSCLC, in the assay on A498 renal and with HL-60(TB) leukemia was greater than 100 µM in each case.
With `CSc1ccccc1P(CCP(c1ccccc1SC)c1ccccc1SC)c1ccccc1SC`, the TGI in the assay with IGROV1 ovarian is greater than 100 µM; with 786-0 renal, greater than 100 µM; in the assay with CCRF-CEM leukemia, 29.6 µM; in the assay with HOP-62 NSCLC, greater than 100 µM; in the assay with ACHN renal it was greater than 100 µM; with MDA-MB-435, greater than 100 µM. Also, the TGI with CAKI-1 renal was greater than 100 µM; with A549 NSCLC, greater than 100 µM; in the assay with A498 renal, greater than 81.7 µM; in the assay on HL-60(TB) leukemia it was 16.3 µM.
Turning to `CC1(C)CC2(C)OC(=N)C1(C#N)C2(C#N)C#N` (stereo unspecified), the TGI in the assay on IGROV1 ovarian was 29.9 µM; in the assay on 786-0 renal it was 16.7 µM; in the assay on ACHN renal, 20.3 µM; in the assay with MDA-MB-435, 33.3 µM; in the assay on CAKI-1 renal it was 12.3 µM; in the assay on A549 NSCLC it was 60 µM. For the same compound, the TGI worked out at 28.7 µM in the assay with A498 renal and 15.6 µM in the assay on HL-60(TB) leukemia.
Turning to `CCOC(=O)c1c(-c2ccc(OC)c(O)c2)c(C#N)c(=S)n(C2OC(CO)C(O)C(O)C2O)c1-c1ccccc1` (stereo unspecified), the TGI with IGROV1 ovarian, in the assay with 786-0 renal, in the assay with CCRF-CEM leukemia, in the assay with HOP-62 NSCLC, in the assay on ACHN renal and in the assay with MDA-MB-435 was greater than 100 µM each time. In addition, the TGI in the assay on CAKI-1 renal, with A549 NSCLC and with A498 renal was greater than 100 µM in each case.
On to `COc1ccccc1N1C(=O)/C(=C\c2cccc(Oc3ccccc3)c2)S(=O)(=O)C1c1ccccc1` (stereo unspecified), for which the TGI in the assay with 786-0 renal, in the assay on CCRF-CEM leukemia, with HOP-62 NSCLC, in the assay on ACHN renal, in the assay with MDA-MB-435 and in the assay on CAKI-1 renal was greater than 100 µM in each case. Moreover, the concentration for total growth inhibition (TGI) in the assay with A549 NSCLC and in the assay on A498 renal was greater than 100 µM throughout.
On to `O=C(NCc1cccnc1)C(=O)NCc1cccnc1`, for which the TGI in the assay with IGROV1 ovarian, in the assay on 786-0 renal, with HOP-62 NSCLC, in the assay with ACHN renal, with MDA-MB-435 and in the assay on CAKI-1 renal was greater than 100 µM in each case. The TGI was greater than 100 µM in the assay with A549 NSCLC, greater than 100 µM with A498 renal and 64.7 µM with HL-60(TB) leukemia.
In the case of `CC1(C)Oc2ccc3c(=O)c4ccccc4oc3c2C1C(=O)O` (stereo unspecified), the TGI with IGROV1 ovarian, in the assay on 786-0 renal, with CCRF-CEM leukemia, with HOP-62 NSCLC, in the assay with MDA-MB-435 and in the assay with CAKI-1 renal was greater than 100 µM each time. Besides, the TGI in the assay on A549 NSCLC and with A498 renal was greater than 100 µM each time.
Regarding `O=C(/C=C/c1ccccc1)CCc1c(O)c2ccccc2oc1=O`, the TGI in the assay on IGROV1 ovarian, in the assay with 786-0 renal, with CCRF-CEM leukemia, with ACHN renal, with MDA-MB-435 and with CAKI-1 renal was greater than 100 µM throughout. For the same compound, the TGI with A549 NSCLC and with A498 renal was greater than 100 µM throughout.
As for `CN(C)c1ccc(/C=C2\C[C@H]3[C@@H]4CCc5cc(O)ccc5[C@H]4CC[C@]3(C)C2=O)cc1`, the total growth inhibition concentration (TGI) in the assay with IGROV1 ovarian, in the assay on CCRF-CEM leukemia, in the assay with HOP-62 NSCLC, with ACHN renal, in the assay with MDA-MB-435 and in the assay on CAKI-1 renal was greater than 100 µM in each case. Further, the total growth inhibition concentration (TGI) in the assay on A549 NSCLC and with A498 renal was greater than 100 µM each time.
As for `CCCCCCCCCCCCCCCCNc1ccn(C2CC(OP(=O)(O)OCC3OC(n4cc(CC)c(=O)[nH]c4=O)CC3O)C(CO)O2)c(=O)n1` (stereo unspecified), the TGI in the assay on IGROV1 ovarian was greater than 100 µM; in the assay with 786-0 renal, greater than 100 µM; in the assay on HOP-62 NSCLC, 53.9 µM; in the assay with ACHN renal it was greater than 100 µM; in the assay with MDA-MB-435, greater than 100 µM; in the assay with CAKI-1 renal it was greater than 100 µM. Further, the TGI in the assay with A549 NSCLC was 55.2 µM; with A498 renal it was greater than 100 µM; with HL-60(TB) leukemia, 20.2 µM.
As to `Cc1cc(C)c2c(c1)CC1(Cc3c(C)cc(C)cc3C1=O)C2=O` (stereo unspecified), the TGI in the assay with IGROV1 ovarian, in the assay with 786-0 renal, in the assay with CCRF-CEM leukemia, in the assay with ACHN renal, in the assay on MDA-MB-435 and in the assay with CAKI-1 renal was greater than 100 µM each time. Also, the TGI in the assay on A549 NSCLC, in the assay with A498 renal and with HL-60(TB) leukemia was greater than 100 µM throughout.
Take `COC(=O)C1[C@H](C(=O)OC)C1(Br)CBr` (stereo partly specified): the TGI in the assay on IGROV1 ovarian, with 786-0 renal, in the assay on HOP-62 NSCLC, with ACHN renal, in the assay on MDA-MB-435 and in the assay on CAKI-1 renal was greater than 100 µM throughout. Moreover, the TGI in the assay on A549 NSCLC, in the assay with A498 renal and with HL-60(TB) leukemia was greater than 100 µM in each case.
For `CC(C)CC(NC(=O)C(COc1ccc([N+](=O)[O-])cc1)Cc1ccccc1)C(=O)Nc1ccccc1` (stereo unspecified), the TGI in the assay on IGROV1 ovarian was 31.2 µM; in the assay on 786-0 renal it was 29.5 µM; with CCRF-CEM leukemia, greater than 100 µM; in the assay on ACHN renal, greater than 100 µM; in the assay on MDA-MB-435 it was greater than 100 µM; in the assay with CAKI-1 renal, 83.8 µM. Further, the TGI with A549 NSCLC is 69.2 µM; with A498 renal it was 72.2 µM; in the assay on HL-60(TB) leukemia, greater than 100 µM.
